Patent publication US12025596B2, “6-oxo-pipecolic acid quantitation by mass spectrometry” (THE REGENTS OF THE UNIVERSITY OF COLORADO, priority 2018, dated 2024)
“And” between values parts separate entries of the source, which are not always exact repeats. Equal entries are not always repeated. “Also recorded” adds a separate entry of the source.

How the values were obtained:
[1] = 4-month biomarker stability study in urine samples; assay type: physicochemical, human; conditions: PDE urine, −70° C.
[2] = Blood spot stability at room temperature; assay type: physicochemical, human; conditions: blood spots (Whatman 903) stored at room temperature
Text: (§1) As a primary aim of this research was to evaluate biomarkers suitable for newborn screening, we analyzed blood spots (Whatman 903 Lot W-041) from two subjects and controls. […] A freeze-thaw study and a 4-month stability study was done in urine samples from subjects 1 and 2 (Table 4).

[3] = Cytosolic, S9, mitochondrial and plasma metabolism of lysine metabolites; assay type: in vitro ADME, human
Method: Cytosolic and mitochondrial metabolism of lysine metabolites: Human liver cytosol 100 μL (10 mg/mL) or S9 fraction 100 μL (20 mg/mL) and 100 μL NAD+ (1.2 mM final) in 400 μL PBS pH 7.4 were preincubated at 37° C. for 5 min, followed by addition of 100 μL Δ1-P6C (100 μM); 100 μL samples were taken at 0.5, 5, 20 and 50 min, added to 300 μL 1:1 MeOH:ACN and analysed by LC-MS/MS. To probe potential phase II metabolism, 100 μL human liver microsomes (20 mg protein/mL) were similarly incubated with 4.0 mM UDPGA.
Human liver mitochondria were freshly prepared by homogenization of a human liver sample with a Teflon pestle in 5% weight to volume Zheng buffer (Zheng et al. 1990, Biochim Biophys Acta 1019:1-10), and after centrifugation at 5600 g for 5 min, the supernatant was transferred to a centrifuge tube; this procedure was repeated on the resuspended pellet a second time. Both supernatants were combined, centrifuged at 37,500 g for 5 min, the resulting pellet resuspended in Zheng buffer, homogenized and similarly pelleted again, and resuspended in 300 μL Zheng buffer to provide a mitochondrial preparation, with protein concentration determined using the Bio-Rad Protein Assay. To access the mitochondrial matrix, the homogenate was subjected to 3 freeze-thaw cycles, followed by 2×7 bursts of sonication on ice using a Branson 450 digital sonifier with a 2-inch cup horn at 30% amplitude. Of this mitochondrial preparation 100 μL was similarly incubated with Δ1-P6C and analyzed as above.
Albeit small, the formation of 6-oxo-PIP raises the possibility of a second pathway. […] Thus, this alternative mechanism to AAA is not a major pathway.

[4] = 4-month biomarker stability study in urine samples; assay type: physicochemical, human; conditions: for concentration: PDE urine; for decrease at 126 days: room temperature
Text: Liquid chromatography tandem mass spectrometry experiments: Lysine metabolites were first analyzed based on previously published liquid chromatography tandem mass spectrometry (LC-MS/MS) methods (Struys, Jakobs 2007, Molecular Genetics and Metabolism 91:405; Yuzyuk et al. 2016, J Chromatogr B Analyt Technol Biomed Life Sci, 1017-1018:145-52). As the goal of this study was to replicate current newborn screening modalities, we focused on a non-derivatized MS/MS analytical method (Nagy et al. 2003, Rapid Commun Mass Spectrom 17:983-90). Samples were analyzed via electrospray ionization in positive ion mode (ESI+) using an Applied Biosystems Sciex 4000 (Applied Biosystems) equipped with a Shimadzu HPLC (Shimadzu Scientific Instruments) and a Leap auto-sampler (LEAP Technologies). Methanol (MeOH):acetonitrile (ACN) 200 μL 1:1 mixture was added to 100 μL of plasma, blood, urine, CSF or standard materials. Plasma and blood samples were centrifuged at 10,000 rpm and the supernatants used. Urine and CSF samples required no additional processing. […] Samples were analyzed using the following conditions: i) ion-spray voltage of 5500 V; ii) temperature, 450° C.; iii) collision using nitrogen gas with curtain gas (CUR) set at 10 and collisionally activated dissociation (CAD) set at 12; iv) ion source gas one (GS1) and two (GS2) were set at 30; v) entrance potential was set at 10 V; vi) quadruple one (Q1) and (Q3) were set on unit resolution; vii) dwell time was set at 200 msec.
Biomarker stability studies: In a 4-month stability study, fresh urine samples (400 μL) from two subjects were aliquoted into 1.5 mL Eppendorf tubes and stored either at room temperature (22±2° C.), freezer (−13±3° C.) or deep freezer (−77±3° C.) and sampled over four-months.
as §1
(§2) To quantify 6-Oxo-PIP and Δ^1-P6C/P6CH, we prepared standard curves ranging from 0.5-500 μM from control urine (FIGS. 5 and 6). In a freeze-thaw study (6-Oxo-PIP, FIG. 6; and P6C/P6CH, FIG. 7) and a 4-month stability study (FIG. 8 and FIG. 9B), fresh urine samples (400 μL) were aliquoted into 1.5 mL Eppendorf tubes and stored either at room temperature (22±2° C.), regular freezer (−13±3° C.) or deep freezer (−77±3° C.) and sampled over a four-month period. First, both biomarkers Δ^1-P6C/P6CH and 6-Oxo-PIP were stable via four freeze-thaw cycles (6-Oxo-PIP FIG. 6; and Δ^1-P6C/P6CH FIG. 7). The initial 6-Oxo-PIP concentrations observed with patient one and patient two were 298±23 and 440±4 μM, respectively. […] The original concentrations of Δ^1-P6C/P6CH for patient one and two were 16.1±1.9 μM and 27.1±2.0 μM, respectively, an order of magnitude less than 6-oxo-PIP. […] Even after 126 days storage, roughly half of the Δ^1-P6C/P6CH from the original sample (day 1) remained.

[5] = Four freeze-thaw cycle stability in urine; assay type: physicochemical, human; conditions: urine from PDE patients
Method: as §1, §2

In the case of O=C1CCC[C@@H](C(=O)O)N1 [6-oxo-PIP, (S)-6-oxopiperidine-2-carboxylic acid], the concentration ([1]; Subject 2, day 0) is reported as 387.6 µM, the concentration ([1]; Subject 2, day 60) is reported as 340.7 µM and the “signal in blood spots” value [2] is reported as “noted in the initial blood spot”. For the same molecule, the “conversion to AAA (hydrolytic ring opening)” value (shortened to “conversion to AAA”) ([3]; incubation with human S9) was “none of these experiments showed a conversion”, the “conversion to AAA” value ([3]; incubation with human cytosol) was “none of these experiments showed a conversion” and the “conversion to AAA” value ([3]; incubation with human plasma (e.g. esterase activity)) was “none of these experiments showed a conversion”. For the same molecule, the concentration ([4]; Room Temperature, Subject 1, day 0) was 298 ± 23 µM and 297.0 µM, the concentration ([4]; Room Temperature, Subject 1, day 0, listed as 6-Oxo-PIP) was 298 ± 23 µM and the concentration ([4]; Room Temperature, Subject 1, day 1) was 294.8 µM. For the same molecule, the concentration ([4]; Room Temperature, Subject 1, day 2) was 283.5 µM, the concentration ([4]; Room Temperature, Subject 1, day 3) was 30.1 µM and the concentration ([4]; Room Temperature, Subject 1, day 5) was 257.6 µM. For the same molecule, the concentration ([4]; Room Temperature, Subject 1, day 7) was 252.1 µM, the concentration ([4]; Room Temperature, Subject 1, day 10) was 234.7 µM and the concentration ([4]; Room Temperature, Subject 1, day 14) was 233.0 µM. The concentration ([4]; Room Temperature, Subject 1, day 21) was 197.5 µM, the concentration ([4]; Room Temperature, Subject 1, day 60) was 182.0 µM and the concentration ([4]; Room Temperature, Subject 1, day 126) was 170.0 µM. The concentration ([4]; Room Temperature, Subject 2, day 0) was 440 ± 4 µM and 440.1 µM, the concentration ([4]; Room Temperature, Subject 2, day 0, listed as 6-Oxo-PIP) was 440 ± 4 µM and the concentration ([4]; Room Temperature, Subject 2, day 1) was 390.8 µM. It also gave a concentration ([4]; Room Temperature, Subject 2, day 2) of 418.2 µM, a concentration ([4]; Room Temperature, Subject 2, day 3) of 387.7 µM and a concentration ([4]; Room Temperature, Subject 2, day 5) of 383.9 µM. For the same molecule, the concentration ([4]; Room Temperature, Subject 2, day 7) was 346.0 µM, the concentration ([4]; Room Temperature, Subject 2, day 10) was 345.2 µM and the concentration ([4]; Room Temperature, Subject 2, day 14) was 330.2 µM. It also gave a concentration ([4]; Room Temperature, Subject 2, day 21) of 322.6 µM, a concentration ([4]; Room Temperature, Subject 2, day 60) of 312.3 µM and a concentration ([4]; Room Temperature, Subject 2, day 126) of 295.3 µM. For the same molecule, the concentration ([4]; −15° C., Subject 1, day 0) was 284.8 µM, the concentration ([4]; −15° C., Subject 1, day 3) was 243.1 µM and the concentration ([4]; −15° C., Subject 1, day 7) was 260.8 µM. It also gave a concentration ([4]; −15° C., Subject 1, day 10) of 285.1 µM, a concentration ([4]; −15° C., Subject 1, day 14) of 219.7 µM and a concentration ([4]; −15° C., Subject 1, day 21) of 227.7 µM. The concentration ([4]; −15° C., Subject 1, day 60) was 218.4 µM, the concentration ([4]; −15° C., Subject 1, day 126) was 211.5 µM and the concentration ([4]; −15° C., Subject 2, day 0) was 387.6 µM. For the same molecule, the concentration ([4]; −15° C., Subject 2, day 3) was 359.0 µM, the concentration ([4]; −15° C., Subject 2, day 7) was 345.0 µM and the concentration ([4]; −15° C., Subject 2, day 10) was 336.5 µM. It also gave a concentration ([4]; −15° C., Subject 2, day 14) of 385.3 µM, a concentration ([4]; −15° C., Subject 2, day 21) of 345.2 µM and a concentration ([4]; −15° C., Subject 2, day 60) of 322.3 µM. For the same molecule, the concentration ([4]; −15° C., Subject 2, day 126) was 314.3 µM, the concentration ([4]; −70° C., Subject 1, day 0) was 284.8 µM and the concentration ([4]; −70° C., Subject 1, day 3) was 298.2 µM. It also gave a concentration ([4]; −70° C., Subject 1, day 7) of 271.9 µM, a concentration ([4]; −70° C., Subject 1, day 10) of 221.7 µM and a concentration ([4]; −70° C., Subject 1, day 14) of 218.9 µM. It also gave a concentration ([4]; −70° C., Subject 1, day 21) of 217.4 µM, a concentration ([4]; −70° C., Subject 1, day 60) of 211.3 µM and a concentration ([4]; −70° C., Subject 1, day 126) of 198.4 µM. It also gave a concentration ([4]; −70° C., Subject 2, day 3) of 356.4 µM, a concentration ([4]; −70° C., Subject 2, day 7) of 329.2 µM and a concentration ([4]; −70° C., Subject 2, day 10) of 380.3 µM. It also gave a concentration ([4]; −70° C., Subject 2, day 14) of 418.3 µM, a concentration ([4]; −70° C., Subject 2, day 21) of 320.1 µM and a concentration ([4]; −70° C., Subject 2, day 126) of 322.7 µM. The “stability at room temperature” value ([4]; urine samples stored at room temperature (22±2° C.)) was “considerably more stable than Δ^1-P6C/P6CH; also recorded: measurable for up to four months”, the “initial decrease within the first two weeks” value ([4]; urine, regardless of storage temperature) was 20-21% and the “decrease at 126 days” value ([4]; urine, subject 1) was 43%. For the same molecule, the “decrease at 126 days” value ([4]; urine, subject 2) was 33% and the “stability via four freeze-thaw cycles” value [5] was “stable”.
